The values that follow are results of earlier work, collected in article PMC5760531, “Action Potential Recording and Pro-arrhythmia Risk Analysis in Human Ventricular Trabeculae” (Frontiers in Physiology, 2018).

As a reminder, the IC50 is the midpoint of a concentration-inhibition curve.

Structures are written as SMILES.

The data set relates to Nav1.5. The arrangement: method as in Qu and Vargas, 2015. The note with it: previous experiments; ref Qu and Vargas, 2015; cited from earlier work.

On to `Nc1nnc(-c2cccc(Cl)c2Cl)c(N)n1` [LAMOTRIGINE, Lamotrigine], for which the IC50 was 40 µM.
